This note sets out measurements from BindingDB's records for doi:10.1021/jm301755q (University Health Network, 2013).

Assay [1] addresses Protein-arginine deiminase type-4 (Homo sapiens) (UniProt Q9UM07). As to the kind of experiment: Inhibition of PAD4 (unknown origin) at 52 degC.
For assay [2] the target is unchanged. The assay is described as follows: Inhibition of PAD4 (unknown origin) at 37 degC.

Protein-arginine deiminase type-4 (Homo sapiens), sequence (Q9UM07 whole entry, looked up): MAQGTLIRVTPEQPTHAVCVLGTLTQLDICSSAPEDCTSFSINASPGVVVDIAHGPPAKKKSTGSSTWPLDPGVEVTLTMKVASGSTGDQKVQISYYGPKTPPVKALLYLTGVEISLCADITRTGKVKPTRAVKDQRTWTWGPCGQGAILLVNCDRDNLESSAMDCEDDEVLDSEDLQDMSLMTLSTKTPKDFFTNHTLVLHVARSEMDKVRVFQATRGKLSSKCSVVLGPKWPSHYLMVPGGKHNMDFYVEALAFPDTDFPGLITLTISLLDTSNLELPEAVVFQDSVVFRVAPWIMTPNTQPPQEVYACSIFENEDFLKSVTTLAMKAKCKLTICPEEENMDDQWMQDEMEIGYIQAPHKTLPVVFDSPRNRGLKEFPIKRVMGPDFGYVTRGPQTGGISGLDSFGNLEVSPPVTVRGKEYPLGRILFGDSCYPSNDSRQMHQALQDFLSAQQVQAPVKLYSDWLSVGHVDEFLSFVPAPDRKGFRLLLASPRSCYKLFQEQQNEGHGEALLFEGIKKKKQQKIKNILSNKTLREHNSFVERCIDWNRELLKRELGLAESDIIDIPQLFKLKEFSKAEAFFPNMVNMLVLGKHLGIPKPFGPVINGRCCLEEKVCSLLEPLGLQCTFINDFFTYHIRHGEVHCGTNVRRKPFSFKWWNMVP

In general, IC50 refers to the concentration that inhibits the measured activity by half. Higher therefore signals weaker potency. The term Ki denotes a dissociation constant, usually derived from enzyme kinetics or from competition with a known ligand. Lower therefore signals tighter binding. Take `CC(=NN=C(N)N)C1=CC(C)(C)CCC1`: the IC50 turned out to be 790 µM in assay [1] and 1460 µM in assay [2]. Further, the Ki in assay [1] came out at 69 µM; in assay [2] it was 127 µM.

In the case of `CC1CCc2c(sc3ncn(N)c(=N)c23)C1` (stereo unspecified), the IC50 in assay [1] was 757 µM; in assay [2] it was 1760 µM. In addition, the Ki in assay [1] is 66 µM; in assay [2], 153 µM.

Take `CC1(C)NC(=O)N(CN2CCNCC2)C1=O`: in assay [1], the IC50 worked out at 4270 µM and the inhibitory constant (Ki) is 371 µM. Moreover, in assay [2], half-maximal inhibition (IC50) was put at 1380 µM and the affinity corresponds to a Ki of 131 µM.

For `C[C@H]1C(=O)Nc2ccc(-c3csc(N=C(N)N)n3)cc21`, the IC50 amounted to 2650 µM in assay [1] and 1320 µM in assay [2]. The Ki in assay [1] was found to be 231 µM; in assay [2], 115 µM.
